The record followed here is patent publication US12116356B2, “N-heterocyclic five-membered ring-containing capsid protein assembly inhibitor, pharmaceutical composition thereof, and use thereof” (CHIA TAI TIANQING PHARMACEUTICAL GROUP CO., LTD., priority 2018, dated 2024).

Holding throughout (type): cell-based
Series [1] concerns HBV DNA in HepAD38 cells. As to the kind of experiment: In vitro cell HBV DNA inhibitory activity (anti-HBV activity) in HepAD38 cells. The following applies: Hepatitis B virus. The procedure: (§1) A bottle of HepG2.2.15 or HepAD38 cells in good exponential growth state was taken, washed once by adding 5 mL PBS, and then thereto was added 3 mL trypsin. After digesting at room temperature for 5 min, 2 mL trypsin was discarded, and then the sample was placed in a cell culture incubator and digested for 10 min. The cells were taken out from time to time and observed under a microscope (whether the cells were individually round and there was no adhesion between the cells). 10 mL complete medium was added to terminate the digestion. After pipetting into a single cell suspension, 10 μL of the cell suspension was taken out for cell counting with a cell counter, and then diluted with a complete medium and adjusted to a cell density of 1*10^5 cells/mL. Then the cell suspension was seeded at 1 mL/well in a 24-well plate with a multi-channel pipette (the 24-well plate was coated with 50 μg/mL Collagen I solution in advance), and cultured in a constant temperature CO2 incubator for 48 h.
(§2) Different compounds dissolved in DMSO were subjected to two-fold gradient dilution (10 concentrations in total) with complete medium. The compound was added, and fresh medium containing the compound was used to replace the spent medium every 72 hours. The cells were treated with the compound for 6 days. After the supernatant was siphoned off, 300 μL lysate (10 mM Tris-HCl, 1 mM EDTA, and 1% NP-40) was added to each well. After lysing at room temperature for 10 min, DNA was extracted, and HBV DNA in the intracellular viral capsid was measured by real-time fluorescence quantitative PCR. The inhibition rate was calculated based on the Ct value, and the EC50 value was calculated by the four-parameter method.

For series [2], the system named is HBV DNA in HepG2.2.15 cells. As to the kind of experiment: In vitro cell HBV DNA inhibitory activity (anti-HBV activity) in HepG2.2.15 cells. The following applies: Hepatitis B virus. The procedure: as §1, §2
Series [3] is described as follows: In vitro cytotoxicity (CCK-8) in HepAD38 cells. The following applies: human. The procedure: (§3) A bottle of HepG2.2.15 or HepAD38 cells in good exponential growth state was taken, washed once by adding 5 mL PBS, and then thereto was added 3 mL trypsin. The sample was digested in a cell culture incubator, and taken out from time to time and observed under a microscope. When the cells just fell off, 1 mL trypsin was discarded. The residual liquid was placed in a cell culture incubator at 37° C. and digested for 8-15 min. The cells were taken out and observed under a microscope (whether the cells were individually round and there was no adhesion between the cells). 5 mL MEM medium was added for cell resuspension. The cells were then subjected to cell counting with a cell counter, diluted with a complete medium, and adjusted to a cell density of 2*10^5 cells/mL. Then the cells were seeded at 100 μL/well in a 96-well plate with a multi-channel pipette (the 96-well plate was coated with 50 μg/mL Collagen I solution in advance), and cultured in a constant temperature CO2 incubator for 24 h. The cells were treated by drug administration, and fresh medium containing the compound was used to replace the spent medium every 3 days. To control wells was added a drug-free medium containing 0.5% DMSO, and a control well containing a common medium was set up. 6 days after the administration, CCK-8 was added at 10 μL/well. After 1 to 2 hours, the absorbance was detected with microplate reader at 450 nm, and the inhibition rate and the CC50 were calculated.

Series [4] is described as follows: In vitro cytotoxicity (CCK-8) in HepG2.2.15 cells. Particulars: human. The protocol:
as §3

The mark [5] stands for this setting: 144 h, anti-HBV activity in HepAD38 cells, 6 days treatment, intracellular capsid HBV DNA by qPCR, read-out: EC50.
Setting [6] is: 144 h, anti-HBV activity in HepG2.2.15 cells, 6 days treatment, intracellular capsid HBV DNA by qPCR, read-out: EC50.

Where two headings read alike, the source gives them in different places.

For the compound `Cc1c(C(=O)Nc2ccc(F)c(C#N)c2)c(C)n(C)c1C(=O)C(=O)N[C@H]1C[C@H](O)C1` [Example 3, N-(3-cyano-4-fluorophenyl)-5-(2-((trans-3-hydroxycyclobutyl)amino)-2-oxoacetyl)-1,2,4-trimethyl-1H-pyrrole-3-carboxamide], the EC50 – broadly, the concentration at which the effect is half-maximal – in series [1] (setting [5]) was 50 to 100 nM.
Same read-out and setting: to `Cc1c(C(=O)Nc2ccc(F)c(C#N)c2)c(C)n(C)c1C(=O)C(=O)N[C@H]1C[C@@H](O)C1` [Example 4, N-(3-cyano-4-fluorophenyl)-5-(2-((cis-3-hydroxycyclobutyl)amino)-2-oxoacetyl)-1,2,4-trimethyl-1H-pyrrole-3-carboxamide] belongs 10 to 50 nM; to `Cc1c(C(=O)Nc2ccc(F)c(C#N)c2)c(C)n(C)c1C(=O)C(=O)NC1COC1` [Example 5, N-(3-cyano-4-fluorophenyl)-1,2,4-trimethyl-5-(2-(oxetan-3-ylamino)-2-oxoacetyl)-1H-pyrrole-3-carboxamide], 10 to 50 nM; to `Cc1c(C(=O)Nc2ccc(F)c(C#N)c2)c(C)n(C)c1C(=O)C(=O)N[C@H]1C[C@@H](CO)C1` [Example 10, N-(3-cyano-4-fluorophenyl)-5-(2-((cis-3-(hydroxymethyl)cyclobutyl)amino)-2-oxoacetyl)-1,2,4-trimethyl-1H-pyrrole-3-carboxamide], 10 to 50 nM.
As for `Cc1c(C(=O)Nc2ccc(F)c(C#N)c2)cn(C)c1C(=O)C(=O)NC(C)(C)C` [Example 14, 5-(2-(tert-butylamino)-2-oxoacetyl)-N-(3-cyano-4-fluorophenyl)-1,4-dimethyl-1H-pyrrole-3-carboxamide], in series [1] (setting [5]), the EC50 is 10 to 50 nM.
As to `Cc1c(C(=O)Nc2ccc(F)c(C#N)c2)cc(C(=O)C(=O)NC(C)(C)C)n1C` [Example 16, 5-(2-(tert-butylamino)-2-oxoacetyl)-N-(3-cyano-4-fluorophenyl)-1,2-dimethyl-1H-pyrrole-3-carboxamide], the EC50 in series [2] (setting [6]) is less than 10 nM. Further, the CC50 – broadly, the concentration that lowers cell viability or growth by half – at 6 days in series [3] is more than 100 µM.
Consider `Cn1c(Br)c(C(=O)Nc2ccc(F)c(C#N)c2)c(Br)c1C(=O)C(=O)NC(C)(C)C` [Example 20, 2,4-dibromo-5-(2-(tert-butylamino)-2-oxoacetyl)-N-(3-cyano-4-fluorophenyl)-1-methyl-1H-pyrrole-3-carboxamide], for which the EC50 in series [1] (setting [5]) was in the range of 10 to 50 nM; in series [2] (setting [6]), 50 to 100 nM.
`Cc1c(C(=O)Nc2ccc(F)c(C#N)c2)c(C)n(C)c1C(=O)C(=O)N[C@@H]1CCOC1` [Example 21]: the EC50 was in the range of 10 to 50 nM in series [1] (setting [5]) and 50 to 100 nM in series [2] (setting [6]). For the same compound, the CC50 at 6 days in series [3] and in series [4] was more than 100 µM in each case.
For `Cc1c(C(=O)Nc2ccc(F)c(C#N)c2)c(C)n(C)c1C(=O)C(=O)N[C@H]1CCOC1` [Example 22], the concentration for a half-maximal effect (EC50) in series [1] (setting [5]) and in series [2] (setting [6]) was 10 to 50 nM throughout. The CC50 at 6 days in series [3] and in series [4] was more than 100 µM throughout.
Turning to `Cc1c(C(=O)Nc2ccc(F)c(C#N)c2)c(C)n(C)c1C(=O)C(=O)NC1(C)CCOC1` (stereo not shown) [Example 23], the EC50 in series [1] (setting [5]) and in series [2] (setting [6]) was less than 10 nM in each case. Besides, the 50% cytotoxic concentration (CC50) at 6 days in series [3] and in series [4] was more than 100 µM in each case.
Regarding `CNC(=O)C1(NC(=O)C(=O)c2c(C)c(C(=O)Nc3ccc(F)c(C#N)c3)c(C)n2C)CC(F)(F)C1` [Example 28], the concentration giving a half-maximal response (EC50) in series [1] (HePAD38, 144 h) is 10 to 50 nM.
Consider `Cc1c(C(=O)Nc2ccc(F)c(C#N)c2)c(Cl)n(C)c1C(=O)C(=O)NC1(C)CCOCC1` [Example 31], for which, in series [1] (setting [5]), the EC50 is less than 10 nM.
Still for that read-out and setting: to `Cc1c(C(=O)Nc2ccc(F)c(C#N)c2)c(Cl)n(C)c1C(=O)C(=O)NC1(C(F)(F)F)COC1` [Example 32] belongs less than 10 nM; to `Cc1c(C(=O)Nc2ccc(F)c(C#N)c2)c(Cl)n(C)c1C(=O)C(=O)NC1(C)COC1` [Example 34, 2-chloro-N-(3-cyano-4-fluorophenyl)-1,4-dimethyl-5-(2-((3-methyloxetan-3-yl)amino)-2-oxoacetyl)-1H-pyrrole-3-carboxamide], 10 to 50 nM; to `Cc1c(C(=O)Nc2ccc(F)c(Cl)c2)c(Cl)n(C)c1C(=O)C(=O)N[C@@H](C)C(F)(F)F` [Example 35, (S)-2-chloro-N-(3-chloro-4-fluorophenyl)-1,4-dimethyl-5-(2-oxo-2-((1,1,1-trifluoroprop-2-yl)amino)acetyl)-1H-pyrrole-3-carboxamide], less than 10 nM.
Same read-out and setting: then `Cc1c(C(=O)Nc2ccc(F)c(Cl)c2)c(C)n(C)c1C(=O)C(=O)NC1(C)CCOCC1` [Example 36, N-(3-chloro-4-fluorophenyl)-1,2,4-trimethyl-5-(2-((4-methyltetrahydro-2H-pyran-4-yl)amino)-2-oxoacetyl)-1H-pyrrole-3-carboxamide], with less than 10 nM; and `Cc1c(C(=O)Nc2ccc(F)c(Cl)c2)c(C)n(C)c1C(=O)C(=O)N[C@@H](C)C(F)(F)F` [Example 37, (S)—N-(3-chloro-4-fluorophenyl)-1,2,4-trimethyl-5-(2-oxo-2-((1,1,1-trifluoroprop-2-yl)amino)acetyl)-1H-pyrrole-3-carboxamide], with less than 10 nM.
In the case of `Cc1c(C(=O)Nc2ccc(F)c(F)c2)c(C)n(C)c1C(=O)C(=O)N[C@@H](C)C(F)(F)F` [Example 38, (S)—N-(3,4-difluorophenyl)-1,2,4-trimethyl-5-(2-oxo-2-((1,1,1-trifluoroprop-2-yl)amino)acetyl)-1H-pyrrole-3-carboxamide], the EC50 in series [1] (setting [5]) and in series [2] (setting [6]) was less than 10 nM each time.
Take `Cc1c(C(=O)Nc2ccc(F)cc2)c(C)n(C)c1C(=O)C(=O)N[C@@H](C)C(F)(F)F` [Example 39]: the EC50 in series [1] (setting [5]) and in series [2] (setting [6]) was less than 10 nM throughout. In series [4], this compound displayed a CC50 at 6 days of more than 100 µM.
For `Cc1c(C(=O)Nc2ccc(F)c(C#N)c2)c(C)n(C)c1C(=O)C(=O)NC1(C)CC(O)C1` (stereo not shown) [Example 46, N-(3-cyano-4-fluorophenyl)-5-(2-((3-hydroxy-1-methylcyclobutyl)amino)-2-oxoacetyl)-1,2,4-trimethyl-1H-pyrrole-3-carboxamide], the EC50 in series [1] (setting [5]) was 10 to 50 nM; in series [2] (setting [6]), less than 10 nM.
The matching figures for `Cc1c(C(=O)Nc2cc(F)c(F)c(F)c2)c(C)n(C)c1C(=O)C(=O)NC1(C)COC1` [Example 47, 1,2,4-trimethyl-5-(2-((3-methyloxetan-3-yl)amino)-2-oxoacetyl)-N-(3,4,5-trifluorophenyl)-1H-pyrrole-3-carboxamide]: less than 10 nM and less than 10 nM.
In the case of `Cn1cc(C(=O)Nc2ccc(F)c(C#N)c2)cc1C(=O)C(=O)NC1(C(F)(F)F)COC1` [Example 50, N-(3-cyano-4-fluorophenyl)-1-methyl-5-(2-oxo-2-((3-(trifluoromethyl)oxetan-3-yl)amino)acetyl)-1H-pyrrole-3-carboxamide], the EC50 in series [1] (setting [5]) was 50 to 100 nM.
With `Cc1c(C(=O)Nc2ccc(F)c(C#N)c2)c(F)c(C(=O)C(=O)N[C@@H](C)C(F)(F)F)n1C` [Example 54, (S)—N-(3-cyano-4-fluorophenyl)-4-fluoro-1,2-dimethyl-5-(2-oxo-2-((1,1,1-trifluoroprop-2-yl)amino)acetyl)-1H-pyrrole-3-carboxamide], the EC50 in series [1] (HePAD38, 144 h) is 10 to 50 nM; in series [2] (HepG2.2.15, 144 h), less than 10 nM.
The matching figures for `Cc1c(C(=O)Nc2ccc(F)c(C#N)c2)c(Cl)n(C)c1C(=O)C(=O)NC1(C)CC(O)C1` (stereo not shown) [Example 55, 2-chloro-N-(3-cyano-4-fluorophenyl)-5-(2-((3-hydroxy-1-methylcyclobutyl)amino)-2-oxoacetyl)-1,4-dimethyl-1H-pyrrole-3-carboxamide]: 10 to 50 nM and 10 to 50 nM.
In the case of `[2H]C([2H])([2H])n1c(C)c(C(=O)Nc2ccc(F)c(C#N)c2)c(C)c1C(=O)C(=O)N[C@@H](C)C(F)(F)F` [Example 60, (S)—N-(3-cyano-4-fluorophenyl)-2,4-dimethyl-1-(methyl-d3)-5-(2-oxo-2-((1,1,1-trifluoroprop-2-yl)amino)acetyl)-1H-pyrrole-3-carboxamide], in series [1] (setting [5]), the EC50 was less than 10 nM.
